{
  "source": "patent US20250339391A1",
  "about": "“METHODS FOR EFFECTIVE MANAGEMENT OF PAIN” (South Rampart Pharma, Inc., priority 2024, published 2025)",
  "key": {"NAPQI": {"test_system": "NAPQI", "assay": "LC-MS/MS identification of serum NAPQI and novel benzoquinoimine", "format": "in vivo, mouse", "conditions": "CD-1 mice, 600 mg/kg, IP or per os", "description": "[…] (NAPQI) was extracted from the serum by adding 3 volumes of ethyl-acetate to 1 volume of serum and storing them on ice for 30 min, followed by centrifugation at 3000 g for 30 min. Afterward, the supernatant was transferred into mass spectrometry vials and dried under N2 gas. The serum was then washed with another 3 volumes of ethyl-acetate, and the supernatant was added back to the same mass spectrometry vial, followed by evaporation under a stream of N2 gas. The sample was re-suspended with 50 μl of 1:1 MeOH:H2O for LC-MS/MS experimentation. The mass spectrophotometer was operated in multiple reaction monitoring (MRM) mode using positive ion electrospray. NAPQI was detected by monitoring the m/z transition 150.3→108.1. Pure NAPQI analytical standard (10 ng/mL) obtained from Cayman Chemical (Ann Arbor, MI) was used to characterize the full fragmentation pattern of NAPQI and determine the likely fragments."}, "[1]": {"test_system": "midbrain periaqueductal gray (PAG) cells", "assay": "Single-cell RNA sequencing of midbrain PAG in CFA-induced chronic inflammatory pain model", "format": "in vivo, rat", "conditions": "CFA rats; for expression of FAAH, CORO2A and RPL7L1 (scRNAseq): 100 mg/kg, 1 h", "description": "Subsequently, we endeavored to explore the single-cell transcriptome of the eVF rat mid-brain PAG region to further define the mechanisms of action (MOA) of chronic inflammatory pain and, ultimately, SRP-001- and ApAP-mediated pain modulation. Left hind paws of Sprague Dawley rats were injected with 150 μl of 50% complete Freund's adjuvant (CFA), freshly diluted with sterile saline on the day of administration, to induce conspicuous long-standing inflammatory pain in the rats' hind paws, along with mechanical hyperalgesia tested using eVF. […].\nSingle-cell (scRNA) RNA sequencing. For cell nuclei isolation from the midbrain PAG, they were flash-frozen, dissected (by a cryotome), minced into small pieces, homogenized, filtered through 70 strainer and centrifuged. ReadiDrop 7-AAD cell viability dye (Bio-Rad) added, and flow sorted the live ([…]) nuclei in a BioRad Cell Sorter S3e using purity mode. Nuclei were counted using Nexcelom automated Cellometer with acridine orange/propidium iodide (AOPI) stain, and the Nuclei Stock Concentration used so that 10,000 nuclei could be targeted for each sample. […] Post library construction QC was performed using Agilent Bioanalyzer 2100 on High Sensitivity DNA chips, and after verification of sample traces, each library normalized based on the average fragment size, and the concentration determined using Qubit 4.0 fluorometer (Thermo Fisher Scientific). […]\nData processing. […] Read alignment, filtering, barcode counting, peak calling, and counting of both ATAC and GEX molecules were performed using cellranger-arc count. […] Only confidently mapped reads with valid barcodes, unique molecular identifiers (UMIs), and non-PCR duplicated were retained. The overall sequencing quality was evaluated by looking at the summary metrics of the web_summary.html file generated for each sample. […]"}, "male Sprague-Dawley rats [2]": {"test_system": "male Sprague-Dawley rats", "assay": "Neuropharmacological profile (modified Irwin/FOB) in Sprague-Dawley rats (GLP)", "format": "in vivo, rat", "description": "Any potential neuropharmacological effects of orally administered SRP-001 in rats were assessed in three groups of eight male Sprague-Dawley rats. Each was orally administered SRP-001 at a single dose of 220, 440, or 660 mg/kg. Vehicle (10% labrasol: 10% DMSO: 80% PEG400) was administered to an additional group of eight rats. The dose volume was 10 mL/kg. […] All observations were made at ±5 min for the observations through 1 h post-dose and ±15 min for the later observations. Body temperature was measured 1 h following dose administration."}, "male Sprague-Dawley rats [3]": {"test_system": "male Sprague-Dawley rats", "conditions": "rat, in vivo", "description": "1) Dose-Range-Finding Oral Toxicity Study with SRP-001 in Sprague-Dawley Rats (non-GLP) As part of a two-phase study, the maximum tolerated dose (MTD) of SRP-001 when administered via gavage once to Sprague-Dawley Rats using an ascending/descending dose design (Calvert Labs/Altasciences, Scott Township, PA USA). A total of 12 male Sprague-Dawley rats (3/dose group), approximately 8-9 weeks old and weighing 245-307 g, were administered single doses of […], 1000, 1500, or 2000 mg/kg SRP-001. Mortality/morbidity was performed twice daily and once prior to scheduled sacrifice. Clinical observations were evaluated prior to each dose administration and approximately 1-3 h post-dose, once daily on non-dosing days and additionally as needed. Body weights were recorded for animals in Groups 1-4 prior to randomization/selection, each dose administration, and scheduled sacrifice on day 3. Food consumption was recorded on day 3. […] Based on the results of this study, doses for the second phase were selected."}, "dog": {"test_system": "dog", "conditions": "in vivo", "description": "To determine the appropriate doses, maximum tolerated dose studies (non-GLP) were conducted prior to the definitive GLP systemic toxicity studies. SRP-001 was evaluated by a full battery of GLP-compliant toxicity studies. Systemic toxicity was evaluated in Sprague-Dawley rats and Beagle dogs by oral administration over 28 days (FIG. 24 and FIGS. 27-28, Table 2). […]"}},
  "note": "“Also recorded” adds a separate entry of the source.",
  "data": [
    {"molecule": "CC(=O)Nc1ccc(O)cc1", "note": "[ApAP, acetaminophen]", "values": [
      {"measurement": "serum NAPQI formation", "setting": "NAPQI", "value": "a NAPQI peak is seen; also recorded: significantly enhanced"},
      {"measurement": "expression of FAAH, CORO2A and RPL7L1 (scRNAseq)", "setting": "[1]", "value": "Downregulation"}
    ]},
    {"molecule": "CCN(CC)C(=O)c1ccccc1S(=O)(=O)NCC(=O)Nc1ccc(O)cc1", "note": "[SRP-001, N,N-diethyl-2-[[2-(4-hydroxyanilino)-2-oxo-ethyl]sulfamoyl]benzamide]", "values": [
      {"measurement": "serum NAPQI formation", "setting": "NAPQI", "value": "lack of formation of the toxic quinonimine metabolite NAPQI; also recorded: lack of production of NAPQI"},
      {"measurement": "body temperature versus vehicle", "setting": "male Sprague-Dawley rats [2]; 660 mg/kg, 1 h post-dose", "value": "significantly (p≤0.05) lower; also recorded: lower body temperature"},
      {"measurement": "neuropharmacological or clinical signs", "setting": "male Sprague-Dawley rats [2]; 220, 440 or 660 mg/kg oral, through 24 h post-dose", "value": "No apparent neuropharmacological or clinical signs were observed"},
      {"measurement": "clinical observations after single dose", "setting": "male Sprague-Dawley rats [3]", "value": "Nearly all the animals appeared normal following dosing"},
      {"measurement": "mortality after single doses", "setting": "male Sprague-Dawley rats [3]", "value": "did not result in any mortality"},
      {"measurement": "mortality after single doses", "setting": "dog", "value": "did not result in any mortality"},
      {"measurement": "expression of FAAH, CORO2A and RPL7L1 (scRNAseq)", "setting": "[1]", "value": "Downregulation"},
      {"measurement": "regulation of FAAH signaling genes", "setting": "[1]; IPA analysis", "value": "more significantly regulated by SRP-001 than ApAP"}
    ]}
  ]
}
